Values quoted from earlier work, collected in patent publication US10603302B2, “Water soluble flavonoids” (priority 2017, dated 2020).

Settings: background statement

For `O=C1c2c(O)cc(O)cc2OC(c2ccc(O)c(O)c2)C1O` (stereo not shown) [Taxifolin, 5,7,31,41-tetrahydroxyflavanol,dihydroquercetin], the solubility in water is listed as “slightly soluble in water”.
